Values of other authors as cited in US7872030B2, “Use of 2-[5-(4-fluorophenyl)-3-pyridylmethylaminomethyl]-chromane and its physiologically acceptable salts” (Merck Patent GmbH, priority 2001, dated 2011).

System: advanced Parkinson patients
Settings: cited from earlier work

Structure (SMILES): O=C1CC2(CCCC2)CC(=O)N1CCCCN1CCN(c2ncccn2)CC1 [buspirone]
- anti-dyskinetic properties: moderate anti-dyskinetic properties
